Experimental data taken from US20100234366A1, “Use of Strobilurins for the Treatment of Disorders of Iron Metabolism” (BSF SE, priority 2006, published 2010).

Legend:
male Wistar rats [1] = assay: Treatment of rats with dimoxystrobin (iron concentration in the blood); format: in vivo, rat; settings: for average iron level in the blood: fourth group: 6-week old rats; for average iron level in the blood / blood level of iron: 500 ppm each day via the food; for blood level of iron: second group: 3-week old rats; for level of iron in the blood: sixth group: 3-week old rats, 250 ppm each day
Protocol: 10 g of the phenylacetic acid derivative dimoxystrobin were prepared by known methods and purified by conventional methods.
Both 3-week old and 6-week old male Wistar rats (see Example 1) were employed for the subsequent experiments. These rats were divided into 6 equally sized groups of 10 rats. The rats were housed under conventional conditions.
The first group consisted of 3-week old rats. They received only the regular food over the entire period of the experiment.
The second group likewise consisted of 3-week old rats. The animals received 500 ppm (milligrams of test substance per […]) of dimoxystrobin each day. It was supplied via the food.
The third group consisted of 6-week old rats which received no active ingredient via the food.
The fourth group consisted of 6-week old rats which received 500 ppm dimoxystrobin via the food each day.
The fifth group consisted of 3-week old rats which received no active ingredient.
The sixth group consisted of 3-week old rats which received 250 ppm of the test substance dimoxystrobin each day.
The iron concentrations in the blood were determined both after 2 days and after 7 days.

male Wistar rats [2] = assay: Treatment of rats with an elevated iron level (iron level in the blood); format: in vivo, rat
Protocol: Two grams of the phenylacetic acid derivative orysastrobin were prepared by known methods and purified by conventional methods.
Six-week old male Wistar rats (Elévage Janvier, France) were employed for the experiments. These rats, which were housed under conventional conditions (20-24° C., 30-70% humidity, 12 hours illumination, standard food) were divided into five groups of equal size.
The first group was treated with no iron compound and no strobilurin derivative.
The second group was treated only with 200 mg of the phenylacetic acid derivative orysastrobin (as suspension by gavage).
The third group received a single intramuscular injection of 50 mg/kg of an iron(III) hydroxide-dextran complex (Myofer® 100), 1 ml of the injection solution comprising 320 mg of the complex (equivalent to 195 mg of Fe(OH)3).
The fourth group received both an injection of 50 mg/kg of the iron complex and, after 6 hours, a dose of 200 mg/kg of the strobilurin derivative by gavage.
The fifth group received both an injection of 50 mg/kg of the iron complex and, after 24 hours, a dose of 200 mg/kg of the strobilurin derivative by gavage.
24 hours before the start of the test, a blood sample was taken from all the rats, in each case at 8 o'clock in the morning of the preceding day, and was analyzed. The iron complex and/or the strobilurin derivative was administered at 8 o'clock in the morning of the day of the experiment. Further blood samples were taken from all the rats at 2 o'clock in the afternoon of the day of the experiment and at 8 o'clock in the morning of the next day, and were analyzed.

HFE mice = assay: Treatment of HFE mice (serum iron level, model of hemochromatosis); format: in vivo, mouse; settings: for reduction of serum iron concentration compared with control group: 2000 ppm in the food, 7 days
Protocol: This genetic defect leads to HFE mice having an elevated iron level in the liver, and this can serve as model of hemochromatosis disorder in humans. The HFE mice employed in the experiments were 12 to 23 weeks old (obtained from University College London, Department of Biochemistry and Molecular Biology).
The housing conditions of the mice corresponded to typical standards as have also been described in Example 1. In the experiments, investigations were carried out both with male HFE mice and with female HFE mice. In each case one group of animals received over a period of 7 days 2000 ppm of the phenylacetic acid derivative orysastrobin each day. The product was supplied freely in the food. The comparison group received only the regular food.

CNC(=O)/C(=N/OC)c1ccccc1COc1cc(C)ccc1C [dimoxystrobin, (E)-2(methoximino)-N-methyl-2-[α-(2,5-xylyloxy)-o-tolyl]acetamide]
average iron level in the blood (male Wistar rats [1]; after 2 days, control 43.1): 34.2 µmol/L
average iron level in the blood (male Wistar rats [1]; after 7 days, control 44.0): 36 µmol/L
finding at the duodenum (male Wistar rats [1]; rats treated with dimoxystrobin, occurred only in the adult animals): distinct thickening of the duodenum
blood level of iron (male Wistar rats [1]; after 2 days, control 92.6): 35.8 µmol/L
blood level of iron (male Wistar rats [1]; after 7 days): 33.6 µmol/L
level of iron in the blood (male Wistar rats [1]; after 2 days, control 96.7): 56 µmol/L
level of iron in the blood (male Wistar rats [1]; after 7 days, control 96.1): 59.7 µmol/L

CNC(=O)/C(=N/OC)c1ccccc1CO/N=C(C)/C(=N/OC)C(/C)=N/OC [orysastrobin, (2E)-2(methoximino)-2-[2-[(3E,5E,6E)-5-(methoximino)-4,6-dimethyl-2 , 8-dioxa-3,7-diazanona-3,6-dien-1-yl]phenyl]-N-methylacetamide]
iron level in the blood (male Wistar rats [2]; fifth group: 50 mg/kg iron complex i.m. plus 200 mg/kg orysastrobin by gavage, after 24 hours, iron only 147.8): 91.9 µmol/L
iron level in the blood (male Wistar rats [2]; fourth group: 50 mg/kg iron complex i.m. plus 200 mg/kg orysastrobin by gavage, after 6 hours, iron only 153.9): 83.1 µmol/L
iron level in the blood (male Wistar rats [2]; second group: only 200 mg orysastrobin by gavage, no iron, 6 hours after administration, untreated control 47.8): 20.6 µmol/L
iron level in the blood (male Wistar rats [2]; second group: only 200 mg orysastrobin by gavage, no iron, after 24 hours, untreated control 47.8): 26.3 µmol/L
iron level (serum) (HFE mice; female HFE mice, 2000 ppm each day in the food, after one week, control 51.2): 36.66 µmol/L
reduction of serum iron concentration compared with control group (HFE mice; female HFE mice): about 28%
serum iron level (HFE mice; male HFE mice, 2000 ppm each day in the food, after one week, control 40.06): 30.62 µmol/L
reduction of serum iron concentration compared with control group (HFE mice; male HFE mice): about 24%
